Measured values taken from PubChem BioAssay AID179 (DTP/NCI, 2004).
Active and inactive are the calls of the source.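 How the source made its calls: active means compounds giving half or more protection of infected cells from virus-caused growth loss, again on retest; inactive means the rest.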 Where a SMILES comes first, the peptide text is derived from it.

Test system: CEM cells HIV-1 protection, formazan growth assay
Test: NCI AIDS Antiviral Assay
Conditions: for IC50: measured here: growth of uninfected CEM cells
Outline: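 Screen of anti-HIV-1 activity in human CEM cells using a formazan-based growth measurement at five drug concentrations. Hits with 50% or greater protection were repeated, and confirmation required reproducible complete protection.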

Row | SMILES | EC50 [µM] | IC50 [µM] | outcome
1 | CCCCNC1=C(C(=O)OCC)C(=O)CO1 | > 794 | 447 | –
2 | NC1C(O)C(O)C(O)C(O)C1O (stereo not given) | > 7240 | > 7240 | –
3 | COc1nc(N)c(NC2OC(CO)C(O)C(O)C2O)c(=O)n1C (stereo not given) | – | – | inactive
4 | O=[N+]([O-])c1cc[n+]([O-])cc1 | > 1410 | 8.91 | –
5 | Cn1cnc([N+](=O)[O-])c1Sc1ncccn1 | > 1050 | 38 | –
6 | Cc1[nH]c(-c2ccccc2)c(O)c1C(=O)OC1CC(C)CCC1C(C)C (stereo not given) | > 200 | 23.4 | –
7 | CCOP(=O)(CC(=O)c1cc2ccccc2[nH]1)OCC | > 851 | 437 | –
8 | COC(=O)/C(C=O)=C/Sc1ccccc1 | – | – | inactive
9 | CCn1c(SCC(=O)NNC(=S)Nc2ccc(C)cc2)nc2ccccc2c1=O | > 200 | 105 | –
10 | CCOC(=O)/C=C1\CONC(c2ccc(OC)cc2)=N1 | > 19.1 | > 19.1 | –
11 | S=C(SSSSC(=S)N1CCCCC1)N1CCCCC1 | > 10.5 | 2.14 | –
12 | CC1=NCCc2c1[nH]c1cc(O)ccc21 | > 398 | > 100 | –
13 | CC1=NC(=Cc2ccc([N+](=O)[O-])cc2)C(=O)N1n1c(-c2ccccc2)nc2ccccc2c1=O | > 200 | 34.7 | –
14 | CCOC(=O)N1CC2(C)C=CC1C(C(=O)OC)C2 (stereo not given) | > 200 | > 200 | –
15 | CCOc1csc([C@H]2CCC3[C@@H]4CC=C5C[C@@H](OC(=O)CCC(=O)O)CC[C@]5(C)C4CC[C@@]32C)n1 (stereo not given in full) | > 50.1 | 33.9 | –
16 | Cc1ccc2nc3c(Cl)cc(=O)cc-3sc2c1 | > 7.59 | 3.89 | –
17 | O=C(O)c1c(O)ccc(N=Nc2ccc(CCc3ccc(N=Nc4ccc(O)c(C(=O)O)c4O)cc3S(=O)(=O)O)c(S(=O)(=O)O)c2)c1O | > 162 | 97.7 | –
18 | C/C(=C/C(=O)O)CC/C=C(/C)C(=O)O | > 479 | > 479 | –
19 | C[N+](C)(C)CCC(=O)N1C/C(=C\c2ccccc2)C(=O)/C(=C/c2ccccc2)C1 | > 200 | 2.82 | –
20 | CCOC(=O)C(C#N)(Cc1ccc2ccccc2n1)Cc1ccc2ccccc2n1 | > 200 | > 200 | –
21 | CC(=O)N=C1N(/C=C2\C(=O)Oc3ccccc3C2=O)C(=O)/C(=C/c2ccco2)N1C | > 200 | 69.2 | –
22 | CCOC(=O)c1nc2cc(C(F)(F)F)ccc2nc1Nc1ccc(OC)cc1 | > 126 | > 126 | –
23 | CN1C(=O)N/C(=C\c2ccc(S(=O)(=O)N/N=C\C(O)C(O)C(O)C(O)CO)cc2)C1=O (stereo not given) | > 200 | > 200 | –

Row | SMILES | EC50 [µM] | IC50 [µM] | outcome
24 | CC1(C)CCCCCCCCCC2CC2CCC(C)(C)C1=O (stereo not given) | > 200 | > 100 | –
25 | N#CCCN(CCC#N)c1ccc(/C=C2\N=C(c3ccccc3)N(NC(N)=S)C2=O)cc1 | > 200 | > 200 | –
26 | CCN(CC)CC(C(=O)Nc1c(C)cccc1C)/C(C)=N\NC(=S)NN (stereo not given) | > 35.5 | > 35.5 | –
27 | O=C1Sc2ccc(Cl)cc2C(=O)N2CCSC12 (stereo not given) | > 50.1 | > 50.1 | –
28 | CC12CCC(OC3OC(CO)C(OC4OC(CO)C(O)C(O)C4O)C(O)C3O)CC1CCC1C2CCC2(C)C(C3=CC(=O)OC3)CCC12O (stereo not given) | > 20 | 0.309 | –
29 | Cc1ccc(NC(=O)c2c(N)c(C#N)c3n2CCC3)cc1 | > 200 | > 200 | –
30 | CC(=O)OCC1OC(n2c(-c3ccc(C)cc3)cc(-c3ccccc3)c(C#N)c2=O)C(OC(C)=O)C(OC(C)=O)C1OC(C)=O (stereo not given) | > 11.7 | > 11.7 | –
31 | CC(NC(=O)C1CCCN1C(=O)OCc1ccccc1)C(=O)O (stereo not given) | > 776 | > 776 | –
32 | CC(=O)NNC(=S)/N=C/c1c(O)cc(C)oc1=O | > 200 | > 200 | –
33 | CC(=O)N/C(=C\C=C\CC=O)SC12CC3CC(CC(C3)C1)C2 | > 200 | 12.6 | –
34 | COc1cc2c(c(OC)c1OC)C1CCCCC1SCC2O (stereo not given) | > 398 | 77.6 | –
35 | NCCCCNC(c1ccccc1)C(O)c1ccccc1 (stereo not given) | – | – | inactive
36 | CCOC(=O)N[C@@H]1C(CC(=O)OC)O[C@H]2OC(C)(C)O[C@H]21 (stereo not given in full) | > 832 | > 832 | –
37 | Cc1cc(NS(=O)(=O)c2ccc(NC(=O)c3cccc4c(NNc5ccc(S(N)(=O)=O)cc5)c5ccccc5nc34)cc2)no1 | > 200 | 37.2 | –
38 | N/C(=N\N=C\c1cc(I)cc(I)c1O)NO | > 200 | 10.5 | –
39 | C=CCNC(=S)N1c2ccccc2NC(=O)CC1C (stereo not given) | > 661 | > 661 | –
40 | CCC1=C(C(C)=O)[C@@H]2CCCCC(C(=O)OC)[C@@H]2C1=O (stereo not given in full) | > 200 | > 200 | –
41 | CC(C)[Si](OC12CCC(CC1O)CC2C(=O)O)(C(C)C)C(C)C (stereo not given) | > 200 | 22.4 | –
42 | Cc1ccc(S(=O)(=O)N(CC(=O)O)c2c[nH]c(C(=O)O)c2)cc1 | > 200 | > 200 | –
43 | c1ccc(Nc2nnc(-c3nsc4ccccc34)o2)cc1 | > 24.5 | > 24.5 | –
44 | CCN(CC)CCOC(=O)c1cc2ccccc2n1Cc1ccccc1 | > 100 | > 100 | –
45 | O=C(O)C#CC(=O)O | > 1580 | > 1580 | –
46 | NC(=O)c1ccc2c(c1)-c1nc-2nc2[n-]c(nc3nc(nc4[n-]c(n1)c1ccc(C(N)=O)cc41)-c1ccc(C(N)=O)cc1-3)c1ccc(C(N)=O)cc21.[Co+2] | > 9.77 | 6.61 | –

Row | SMILES | EC50 [µM] | IC50 [µM] | outcome
47 | COc1cc2ccc3c4cc(OC)c(OC(C)C)cc4cnc3c2cc1OC | – | – | inactive
48 | O=C(NCCCl)SCCO | > 1350 | > 1350 | –
49 | CC(=O)Nc1cc2cc(N=CN(C)C)ccc2oc1=O | > 263 | 148 | –
50 | CC(C)CC(NC(=O)C(Cc1ccc(O)cc1)NC(=O)C(CO)NC(=O)C(N)CCC(N)=O)C(=O)NCC(=O)O (stereo not given) (H-QSYLG-OH; configuration not given here) | – | – | inactive
51 | NCCCS(=O)(=O)O | > 200 | > 200 | –
52 | O=c1ccc2c(-c3ccccc3O)c3ccc(O)cc3oc-2c1 | > 95.5 | 17.4 | –
53 | CCC(C)N1CN(c2ccccc2)C2(CCN(CCCC3(c4ccc(F)cc4)OCCO3)CC2)C1=O (stereo not given) | > 200 | 6.92 | –
54 | CCCCCCCCCCCCCCCC(=O)Nc1ccn(C2CCC(COP(=O)(O)OCC3OC(n4cc(C)c(=O)[nH]c4=O)CC3F)O2)c(=O)n1 (stereo not given) | 0.0132 | 0.2 | –
55 | CC(C)(C)c1ccc(Br)c(CCC(=O)NO)c1 | – | – | inactive
56 | O=C(OC[C@H]1OCC(=O)[C@@]2(OC(=O)c3ccccc3)[C@@H]1[C@H]1C=C[C@@H]2C1)c1ccccc1 | – | – | inactive
57 | CCOC(=O)Cn1c(C)nc2nn(Cc3ccccc3)cc2c1=O | > 200 | > 200 | –
58 | O=[N+]([O-])c1ccccc1CS(=O)(=O)c1ccccc1 | – | – | inactive
59 | O=P1(c2ccccc2)CCCCC1 | 0.0631 | > 200 | –
60 | CN1CCC23CCCC[C@H]2C1CC1=C3CC(=O)CC1 (stereo not given in full) | > 692 | 263 | –
61 | Nc1nn2cc3c(nc2c1N=Nc1ccc(Cl)cc1)CCCC3 | – | – | inactive
62 | O=[N+]([O-])c1cccc(N=Cc2ccccc2O)c1 | > 200 | 91.2 | –
63 | CC1=N/C(=C\c2ccc(N)cc2)C(=O)N1Nc1nnc(NN2C(=O)/C(=C/c3ccc(N)cc3)N=C2C)c2ccccc12 | – | – | inactive
64 | Cc1cc2c(oc(=O)c3cc(C)sc32)s1 | > 42.7 | > 42.7 | –
65 | N#Cc1c(CC(=O)O)cc(=O)n2c1[nH]c1ccccc12 | > 933 | 316 | –
66 | Cc1ccc(N=NC(C(=O)c2ccccc2)C(=O)c2ccccc2)cc1 | > 39.8 | 20 | –
67 | CCSCCCCCCCCCCC(=O)OCC1OC(n2cc(C)c(=O)[nH]c2=O)CC1F (stereo not given) | 0.0132 | 0.2 | –
68 | NC1=N/N=C(c2ccccc2)\C=C/C(c2ccccc2)=N\1 | > 19.1 | > 19.1 | –
69 | CC(=O)O[C@]1(C(C)=O)CC[C@H]2[C@@H]3C=C(Cl)C4=CC(=O)CC[C@]4(C)[C@H]3CC[C@@]21C | > 200 | > 200 | –

Row | SMILES | EC50 [µM] | IC50 [µM] | outcome
70 | CNC(=O)Oc1c(Cl)cccc1SSc1cccc(Cl)c1OC(=O)NC | > 200 | 19.5 | –
71 | CC1OC2CC(=O)OC2C2=C1C(=O)c1c(O)cccc1C2=O (stereo not given) | > 2 | 0.0282 | –
72 | NC(=O)N1N=C2c3ccccc3CC[C@@H]2C1c1ccccc1 (stereo not given in full) | – | – | inactive
73 | S=C(NCCc1ccccn1)N/N=C/c1ccccn1 | > 2 | 0.0257 | –
74 | O=C(CCn1ccnc1[N+](=O)[O-])NCCCn1ccnc1[N+](=O)[O-] | > 200 | > 200 | –
75 | CC1(C(=O)Nc2ccccc2)CC2(C)CC(C)(C1)C(O)NC2=O (stereo not given) | – | – | inactive
76 | CC1(c2cccc(N)c2)C2C(=O)NC(=O)C1C(=O)NC2=O (stereo not given) | > 331 | 56.2 | –
77 | O=C(CN1CCN(c2ccccc2)CC1)c1ccc2[nH]c(=O)oc2c1 | > 200 | > 200 | –
78 | COc1ccc(/C=C(/C(=O)O)c2ccccc2)cc1 | > 708 | 288 | –
79 | CNC(=S)SSC(=S)NCCNC(=S)SSC(=S)NC | – | – | inactive
80 | O=c1[nH]c(=O)n(COC(CO)CO)cc1-c1ccccc1 | > 200 | > 200 | –
81 | CC1C(c2ccccc2O)c2cc3c(cc2OC1N1CCOCC1)OCO3 (stereo not given) | > 200 | 42.7 | –
82 | CC(NC(=O)C(N)CC(=O)O)NC(=O)N1CCOCC1 (stereo not given) | > 200 | > 200 | –
83 | Cc1cccc(C)c1NC(=O)CCc1nc(=S)[nH][nH]1 | > 468 | > 468 | –
84 | COc1ncnc2c1ncn2C1OC(CO)(C(F)(F)F)C(O)C1O (stereo not given) | > 200 | > 200 | –
85 | COC(=O)c1cc(C(c2cc(C(=O)OC)c(O)cc2C)C(Cl)Cl)c(C)cc1O | > 91.2 | 6.46 | –
86 | Nc1cccc(P(N)(N)=O)c1 | > 200 | > 200 | –
87 | C(=N\Nc1ccc2ccccc2n1)/c1ccccn1 | > 20 | 1.1 | –
88 | C[C@H](N)C(O)C/C=C\CC(O)/C=C/C=C\C/C=C\C/C=C\C/C=C\CCCCCCC(O)[C@H](C)N (stereo not given in full) | – | – | inactive
89 | O=C1C=C(Nc2ccc(Cl)cc2Cl)C(=O)C=C1Nc1ccc(Cl)cc1Cl | > 200 | > 200 | –
90 | CCC(COCC(CC)C(=O)O)C(=O)O (stereo not given) | – | – | inactive
